Assays:
Type in all cases: cell-based, human
PC-3 cells = test: Anti-proliferative toxicity against prostate cancer cell line PC-3 (CCK8); conditions: 3 days
Outline: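 PC-3 cells (4000/well, pre-cultured 24 h) exposed in triplicate to compound at final 0.00001-1.0 μM for 3 days at 37 °C, 5% CO2. Viability read by CCK8, 1-4 h at 37 °C, absorbance at 450 nm.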

VCaP cells = test: Anti-proliferative toxicity against prostate cancer cell line Vcap (CCK8); conditions: 3 days, CCK8
Outline: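 VCaP cells (DMEM, 10% FBS) seeded 20000 cells/well, cultured 72 h, then exposed in triplicate to compound at final well concentrations of 0.00001–0.16 μM for 3 days at 37 °C, 5% CO2. Viability by CCK8, 1–4 h at 37 °C, absorbance at 450 nm.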

22Rv1 cells = test: Anti-proliferative toxicity against prostate cancer cell line 22Rv1 (CCK8); conditions: 3 days, CCK8
Outline: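 22Rv1 cells pre-cultured for 48 h, then exposed to compounds at 0.00001-1.0 μM final, in triplicate, for 3 days. Viability read by CCK8 absorbance at 450 nm after 1-4 h at 37 °C.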

| Molecule | IC50 (PC-3 cells) [µM] | IC50 (VCaP cells) [µM] | IC50 (22Rv1 cells) [µM] | IC50 (PC-3 cells; Homo sapiens, 72 h) [µM] | IC50 (VCaP cells; Homo sapiens, 72 h) [µM] | IC50 (22Rv1 cells; Homo sapiens, 72 h) [µM] |
| --- | --- | --- | --- | --- | --- | --- |
| N-(3-(N—(N-(4-(2-(3-(2,6-dioxopiperidine))-isoindole-1,3-dione))-(1R,4S)-bicyclo[2,2,1]heptane-2R,6R-diamine))phenyl)-3-oxo-4-aza-5α-androst-1-ene-17β-carboxamide and N-(3-(N—(N-(4-(2-(3-(2,6-dioxopiperidine))-isoindole-1,3-dione))-(1S,4R)-bicyclo[2,2,1]heptane-2R,6R-diamine))phenyl)-3-oxo-4-aza-5α-androst-1-ene-17β-carboxamide [C71] | > 1 | 0.01 to 1 | 0.01 to 1 |  |  |  |
| C[C@]12C=CC(=O)N[C@@H]1CC[C@@H]1[C@@H]2CC[C@]2(C)[C@@H](C(=O)Nc3cccc(OCCCCCCNc4cccc5c4C(=O)N(C4CCC(=O)NC4=O)C5=O)c3)CC[C@@H]12 (stereo partly drawn) [C35, N-(3-((6-((4-(2-(3-(2,6-dioxopiperidine))-isoindole-1,3-dione))amino)hexyl)oxy)phenyl)-3-oxo-4-aza-5α-androst-1-ene-17β-carboxamide] |  |  |  | > 1 | > 1 | > 1 |
| CN(c1cccc(NC(=O)[C@H]2CC[C@H]3[C@@H]4CC[C@H]5NC(=O)C=C[C@]5(C)[C@H]4CC[C@]23C)c1)[C@@H]1CCC[C@@H](Nc2cccc3c2C(=O)N(C2CCC(=O)NC2=O)C3=O)C1 (stereo partly drawn) [C80, N-(3-(N—(N-methyl-N-(4-(2-(3-(2,6-dioxopiperidine))-isoindole-1,3-dione))-1R,3R-cyclohexanediamine))phenyl)-3-oxo-4-aza-5α-androst-1-ene-17β-carboxamide] |  |  |  | 0.01 to 1 | 0.0001 to 0.01 | 0.0001 to 0.01 |
| C[C@]12C=CC(=O)N[C@@H]1CC[C@@H]1[C@@H]2CC[C@]2(C)[C@@H](C(=O)Nc3ccc(OCCNc4ccc5c(c4)C(=O)N(C4CCC(=O)NC4=O)C5=O)cc3)CC[C@@H]12 (stereo partly drawn) [C16, N-(4-((2-((5-(2-(3-(2,6-dioxopiperidine))-isoindole-1,3-dione))amino)ethyl)oxy)phenyl)-3-oxo-4-aza-5α-androst-1-ene-17β-carboxamide] |  |  |  | > 1 | > 1 | > 1 |
| C[C@]12C=CC(=O)N[C@@H]1CC[C@@H]1[C@@H]2CC[C@]2(C)[C@@H](C(=O)Nc3cccc(N[C@@H]4CCC[C@@H](Nc5cc(F)cc6c5C(=O)N(C5CCC(=O)NC5=O)C6=O)C4)c3)CC[C@@H]12 (stereo partly drawn) [C79, N-(3-(N—(N-(6-fluoro-4-(2-(3-(2,6-dioxopiperidine))-isoindole-1,3-dione))-1R,3R-cyclohexanediamine))phenyl)-3-oxo-4-aza-5α-androst-1-ene-17β-carboxamide] |  |  |  | 0.0001 to 0.01 | 0.0001 to 0.01 | 0.0001 to 0.01 |
| C[C@]12C=CC(=O)N[C@@H]1CC[C@@H]1[C@@H]2CC[C@]2(C)[C@@H](C(=O)NCCCCCCNc3cccc4c3C(=O)N(C3CCC(=O)NC3=O)C4=O)CC[C@@H]12 (stereo partly drawn) [C9, N-(6-((4-(2-(3-(2,6-dioxopiperidine))-isoindole-1,3-dione))amino)hexyl)-3-oxo-4-aza-5α-androst-1-ene-17β-carboxamide] |  |  |  | > 1 | > 1 | > 1 |
| C[C@]12C=CC(=O)N[C@@H]1CC[C@@H]1[C@@H]2CC[C@]2(C)[C@@H](C(=O)Nc3cccc(OCCNc4ccc5c(c4)C(=O)N(C4CCC(=O)NC4=O)C5=O)c3)CC[C@@H]12 (stereo partly drawn) [C28, N-(3-((2-((5-(2-(3-(2,6-dioxopiperidine))-isoindole-1,3-dione))amino)ethyl)oxy)phenyl)-3-oxo-4-aza-5α-androst-1-ene-17β-carboxamide] |  |  |  | > 1 | > 1 | > 1 |
| C[C@]12C=CC(=O)N[C@@H]1CC[C@@H]1[C@@H]2CC[C@]2(C)[C@@H](C(=O)Nc3cccc(N4CCC(CNc5cccc6c5C(=O)N(C5CCC(=O)NC5=O)C6=O)CC4)c3)CC[C@@H]12 (stereo partly drawn) [C48, N-(3-(4-(((4-(2-(3-(2,6-dioxopiperidine))-isoindole-1,3-dione))amino)methyl)piperidine)phenyl)-3-oxo-4-aza-5α-androst-1-ene-17β-carboxamide] |  |  |  | > 1 | > 1 | > 1 |
| C[C@]12C=CC(=O)N[C@@H]1CC[C@@H]1[C@@H]2CC[C@]2(C)[C@@H](C(=O)Nc3cccc(OCCCCCCCCNc4cccc5c4C(=O)N(C4CCC(=O)NC4=O)C5=O)c3)CC[C@@H]12 (stereo partly drawn) [C39, N-(3-((8-((4-(2-(3-(2,6-dioxopiperidine))-isoindole-1,3-dione))amino)octyl)oxy)phenyl)-3-oxo-4-aza-5α-androst-1-ene-17β-carboxamide] |  |  |  | > 1 | > 1 | > 1 |
| C[C@]12C=CC(=O)N[C@@H]1CC[C@@H]1[C@@H]2CC[C@]2(C)[C@@H](C(=O)Nc3cccc(OCCCCNc4cccc5c4C(=O)N(C4CCC(=O)NC4=O)C5=O)c3)CC[C@@H]12 (stereo partly drawn) [C31, N-(3-((4-((4-(2-(3-(2,6-dioxopiperidine))-isoindole-1,3-dione))amino)butyl)oxy)phenyl)-3-oxo-4-aza-5α-androst-1-ene-17β-carboxamide] |  |  |  | > 1 | > 1 | > 1 |
| C[C@]12C=CC(=O)N[C@@H]1CC[C@@H]1[C@@H]2CC[C@]2(C)[C@@H](C(=O)NCCNc3cccc4c3C(=O)N(C3CCC(=O)NC3=O)C4=O)CC[C@@H]12 (stereo partly drawn) [C1, N-(2-((4-(2-(3-(2,6-dioxopiperidine))-isoindole-1,3-dione))amino)ethyl)-3-oxo-4-aza-5α-androst-1-ene-17β-carboxamide] |  |  |  | > 1 | > 1 | > 1 |
| C[C@]12C=CC(=O)N[C@@H]1CC[C@@H]1[C@@H]2CC[C@]2(C)[C@@H](C(=O)Nc3cccc(N4CCC(CN5CCN(c6ccc7c(c6)C(=O)N(C6CCC(=O)NC6=O)C7=O)CC5)CC4)c3)CC[C@@H]12 (stereo partly drawn) [C45, 1-(4-(1-(3-(3-oxo-4-aza-5α-androst-1-ene-17β-carboxamido)phenyl)piperidine)methyl)-4-(5-(2-(3-(2,6-dioxopiperidine))-isoindole-1,3-dione))piperazine] |  |  |  | > 1 | > 1 | > 1 |
| C[C@]12C=CC(=O)N[C@@H]1CC[C@@H]1[C@@H]2CC[C@]2(C)[C@@H](C(=O)Nc3ccc(OCCCCCCCCNc4ccc5c(c4)C(=O)N(C4CCC(=O)NC4=O)C5=O)cc3)CC[C@@H]12 (stereo partly drawn) [C26, N-(4-((8-((5-(2-(3-(2,6-dioxopiperidine))-isoindole-1,3-dione))amino)octyl)oxy)phenyl)-3-oxo-4-aza-5α-androst-1-ene-17β-carboxamide] |  |  |  | > 1 | 0.0001 to 0.01 | 0.01 to 1 |
| C[C@]12C=CC(=O)N[C@@H]1CC[C@@H]1[C@@H]2CC[C@]2(C)[C@@H](C(=O)NCCCCCCCNc3ccc4c(c3)C(=O)N(C3CCC(=O)NC3=O)C4=O)CC[C@@H]12 (stereo partly drawn) [C12, N-(7-((5-(2-(3-(2,6-dioxopiperidine))-isoindole-1,3-dione))amino)heptyl)-3-oxo-4-aza-5α-androst-1-ene-17β-carboxamide] |  |  |  | > 1 | > 1 | > 1 |
| C[C@]12C=CC(=O)N[C@@H]1CC[C@@H]1[C@@H]2CC[C@]2(C)[C@@H](C(=O)Nc3cccc(N[C@H]4C[C@H](Nc5cccc6c5C(=O)N(C5CCC(=O)NC5=O)C6=O)CC(F)(F)C4)c3)CC[C@@H]12 (stereo partly drawn) [C74, N-(3-(N—(N-(4-(2-(3-(2,6-dioxopiperidine))-isoindole-1,3-dione))-5,5-difluoro-1S,3S-cyclohexanediamine))phenyl)-3-oxo-4-aza-5α-androst-1-ene-17β-carboxamide] |  |  |  | 0.01 to 1 | 0.0001 to 0.01 | 0.0001 to 0.01 |
| C[C@]12C=CC(=O)N[C@@H]1CC[C@@H]1[C@@H]2CC[C@]2(C)[C@@H](C(=O)Nc3cccc(N[C@@H]4CCC[C@@H](Nc5cccc6c5CN(C5CCC(=O)NC5=O)C6=O)C4)c3)CC[C@@H]12 (stereo partly drawn) [C62, N-(3-(N—(N-(4-(2-(3-(2,6-dioxopiperidine))-1-oxo-2,3-dihydro-1H-isoindol))-1R,3R-cyclohexanediamine))phenyl)-3-oxo-4-aza-5α-androst-1-ene-17β-carboxamide] |  |  |  | > 1 | 0.01 to 1 | > 1 |
| C[C@]12C=CC(=O)N[C@@H]1CC[C@@H]1[C@@H]2CC[C@]2(C)[C@@H](C(=O)NCCCCNc3cccc4c3C(=O)N(C3CCC(=O)NC3=O)C4=O)CC[C@@H]12 (stereo partly drawn) [C5, N-(4-((4-(2-(3-(2,6-dioxopiperidine))-isoindole-1,3-dione))amino)butyl)-3-oxo-4-aza-5α-androst-1-ene-17β-carboxamide] |  |  |  | > 1 | > 1 | > 1 |
| C[C@]12C=CC(=O)N[C@@H]1CC[C@@H]1[C@@H]2CC[C@]2(C)[C@@H](C(=O)Nc3cccc(N[C@@H]4CCC[C@@H](Nc5ccc(F)c6c5C(=O)N(C5CCC(=O)NC5=O)C6=O)C4)c3)CC[C@@H]12 (stereo partly drawn) [C78, N-(3-(N—(N-(7-fluoro-4-(2-(3-(2,6-dioxopiperidine))-isoindole-1,3-dione))-1R,3R-cyclohexanediamine))phenyl)-3-oxo-4-aza-5α-androst-1-ene-17β-carboxamide] |  |  |  | 0.0001 to 0.01 | 0.0001 to 0.01 | 0.0001 to 0.01 |
